Test results as given in patent publication US7166299B2, “Preparation of aqueous clear solution dosage forms with bile acids” (priority 1998, dated 2007).
Where “and” joins values, the source holds several entries; their conditions need not be identical. Identical values can stand only once.

Legend:
[1] = Solution stability test (HPLC) of single bile acid with maltodextrin in aqueous solution, Example I; assay type: physicochemical
Experimental: (§1) The stability of dosage formulations of the invention were evaluated by measuring the concentration of the relevant bile acid over time in preparations comprising soluble bile acid, a high molecular weight aqueous soluble starch conversion product, and water at various pH and temperature levels. The retention time of each bile acid may be adjusted as needed to permit individual analysis each bile acid present in a complex samples, i.e. a sample having a plurality of bile acids.
(§2) The stability tests were conducted on three different aqueous solution systems: […].
(§3) The stability tests were performed with HPLC and microscope light at various pH conditions under the normal and accelerated conditions. Accelerated conditions for testing pharmaceutical compositions have been described (Remington, The Science and Practice of Pharmacy, 19th ed., p. 640). […] Thus, the formulations of the examples are suitable for preparing a commercial liquid dosage form. […] Some formulations remain stable for over 2 years.
(§4) For the solution stability test for each bile acid, HPLC was used to measure the concentration of the relevant soluble bile acid under the following conditions: the elution solvent of 0.02 M KH2PO4:acetonitrile in a ratio of 55:45, with a pH of 3.01, the flow rate was 0.8 mL/min., the injection volume was 20 μL, wave length for detection was 195 nm. In the tables, the concentration of the indicated bile acid salt for each of the three numbered trials and the average thereof is reported on each line. The percentage indicates the relative concentration of the bile acid salt after incubation for a certain amount of time in comparison with the initial concentration.
100 mL of the aqueous solution in which one of the above bile acids is dissolved was prepared. Into the resulting clear solution, maltodextrin, a high molecular weight aqueous soluble starch conversion product, was added with agitation at room temperature. Purified water was added to adjust the total volume to be 100 mL. According to the instant invention and all examples, purified water is deionized, distilled deionized-distilled water, or a grade commonly used for pharmaceutical preparations.

[2] = cited from earlier work
[3] = Solution stability test (HPLC) of mixed bile acids with maltodextrin in aqueous solution, Example II; assay type: physicochemical; settings: Table 2: pH 1, 50° C.
Experimental: as §1, §2, §3, §4
Into the resulting clear solution, maltodextrin was added with agitating at room temperature. Purified water was added to adjust the total volume to be 100 mL.

[4] = Table 1B: pH 10, 50° C., day 20

C[C@H](CCC(=O)O)[C@H]1CC[C@H]2[C@@H]3C(=O)C[C@@H]4C[C@H](O)CC[C@]4(C)[C@H]3CC[C@]12C [KLCA, 7-ketolithocholic acid]
Percentage of day 0 concentration ([1]; Table 1A: pH 7, 50° C., day 0): 100.0%
concentration by HPLC, Average ([1]; Table 1A: pH 7, 50° C., day 0): 0.880
concentration by HPLC, trials #1-#3 ([1]; Table 1A: pH 7, 50° C., day 0): 0.888 and 0.879 and 0.874
Percentage of day 0 concentration ([1]; Table 1A: pH 7, 50° C., day 4): 100.2%
concentration by HPLC, Average ([1]; Table 1A: pH 7, 50° C., day 4): 0.882
concentration by HPLC, trials #1-#3 ([1]; Table 1A: pH 7, 50° C., day 4): 0.871 and 0.887 and 0.888
Percentage of day 0 concentration ([1]; Table 1A: pH 7, 50° C., day 7): 101.4%
concentration by HPLC, Average ([1]; Table 1A: pH 7, 50° C., day 7): 0.893
concentration by HPLC, trials #1-#3 ([1]; Table 1A: pH 7, 50° C., day 7): 0.897 and 0.893 and 0.888
Percentage of day 0 concentration ([1]; Table 1A: pH 7, 50° C., day 20): 102.1%
concentration by HPLC, Average ([1]; Table 1A: pH 7, 50° C., day 20): 0.899
concentration by HPLC, trials #1-#3 ([1]; Table 1A: pH 7, 50° C., day 20): 0.893 and 0.909 and 0.894
Percentage of day 0 concentration ([1]; Table 1B: pH 10, 50° C., day 0): 100.0%
concentration by HPLC, Average ([1]; Table 1B: pH 10, 50° C., day 0): 0.870
concentration by HPLC, trials #1-#3 ([1]; Table 1B: pH 10, 50° C., day 0): 0.879 and 0.874 and 0.857
Percentage of day 0 concentration ([1]; Table 1B: pH 10, 50° C., day 4): 100.5%
concentration by HPLC, Average ([1]; Table 1B: pH 10, 50° C., day 4): 0.874
concentration by HPLC, trials #1-#3 ([1]; Table 1B: pH 10, 50° C., day 4): 0.870 and 0.873 and 0.880
Percentage of day 0 concentration ([1]; Table 1B: pH 10, 50° C., day 7): 101.5%
concentration by HPLC, Average ([1]; Table 1B: pH 10, 50° C., day 7): 0.884
concentration by HPLC, trials #1-#3 ([1]; Table 1B: pH 10, 50° C., day 7): 0.893 and 0.876 and 0.882
Percentage of day 0 concentration [1, 4]: 102.2%
concentration by HPLC, Average [1, 4]: 0.889
concentration by HPLC, trials #1-#3 [1, 4]: 0.887 and 0.893
solubility in the gastric juices and in aqueous hydrochloric acid solution [2]: especially insoluble
Percentage of day 0 concentration ([3]; day 0): 100.0%
concentration by HPLC, Average ([3]; day 0): 0.876
concentration by HPLC, trials #1-#3 ([3]; day 0): 0.883 and 0.877 and 0.869
Percentage of day 0 concentration ([3]; day 4): 98.3%
concentration by HPLC, Average ([3]; day 4): 0.861
concentration by HPLC, trials #1-#3 ([3]; day 4): 0.870 and 0.866 and 0.847
Percentage of day 0 concentration ([3]; day 7): 96.4%
concentration by HPLC, Average ([3]; day 7): 0.845
concentration by HPLC, trials #1-#3 ([3]; day 7): 0.848 and 0.844 and 0.843
Percentage of day 0 concentration ([3]; day 20): 74.9%
concentration by HPLC, Average ([3]; day 20): 0.656
concentration by HPLC, trials #1-#3 ([3]; day 20): 0.661 and 0.651

C[C@H](CCC(=O)NCCS(=O)(=O)O)[C@H]1CC[C@H]2[C@@H]3[C@@H](O)C[C@@H]4C[C@H](O)CC[C@]4(C)[C@H]3CC[C@]12C [Tauroursodeoxycholic acid]
solubility in hydrochloric acid solution [2]: insoluble
solubility in the gastric juices and in aqueous hydrochloric acid solution [2]: especially insoluble

C[C@H](CCC(=O)O)[C@H]1CC[C@H]2[C@@H]3C[C@H](O)[C@@H]4C[C@H](O)CC[C@]4(C)[C@H]3CC[C@]12C [hyodeoxycholic acid]
solubility in the gastric juices and in aqueous hydrochloric acid solution [2]: especially insoluble

C[C@H](CCC(=O)NCCS(=O)(=O)O)[C@H]1CC[C@H]2[C@@H]3[C@H](O)C[C@@H]4C[C@H](O)CC[C@]4(C)[C@H]3CC[C@]12C [taurochenodeoxycholic acid]
solubility in hydrochloric acid solution [2]: insoluble
solubility in the gastric juices and in aqueous hydrochloric acid solution [2]: especially insoluble
